Data as given in PMC8398451, “Molecular Engineering of Curcumin, an Active Constituent of Curcuma longa L. (Turmeric) of the Family Zingiberaceae with Improved Antiproliferative Activity” (Plants, 2021).
Where two headings read alike, the source gives them in different places.

Assays:
K-562 = experiment: NCI antiproliferative SRB assay, Leukemia panel; assay type: cell-based, Human
SR = experiment: NCI antiproliferative SRB assay, Leukemia panel; assay type: cell-based, Human
A549/ATCC = experiment: NCI antiproliferative SRB assay, Non-Small Cell Lung Cancer panel; assay type: cell-based, Human
EKVX = experiment: as above; assay type: cell-based, Human
HOP-92 = experiment: as above; assay type: cell-based
NCI-H322M = experiment: as above; assay type: cell-based, Human
HCT-15 = experiment: NCI antiproliferative SRB assay, Colon Cancer panel; assay type: cell-based, Human
SF-295 = experiment: NCI antiproliferative SRB assay, CNS Cancer panel; assay type: cell-based, Human
SNB-19 = experiment: NCI antiproliferative SRB assay, CNS Cancer panel; assay type: cell-based, Human
SNB-75 = experiment: NCI antiproliferative SRB assay, CNS Cancer panel; assay type: cell-based, Human
LOX IMVI = experiment: NCI antiproliferative SRB assay, Melanoma panel; assay type: cell-based, Human
MDA-MB-435 = experiment: NCI antiproliferative SRB assay, Melanoma panel; assay type: cell-based
SK-MEL-2 = experiment: NCI antiproliferative SRB assay, Melanoma panel; assay type: cell-based, Human
SK-MEL-5 = experiment: NCI antiproliferative SRB assay, Melanoma panel; assay type: cell-based, Human
A498 = experiment: NCI antiproliferative SRB assay, Renal Cancer panel; assay type: cell-based, Human
ACHN = experiment: as above; assay type: cell-based, Human
SN 12C = experiment: as above; assay type: cell-based, Human
PC-3 = experiment: NCI antiproliferative SRB assay, Prostate Cancer panel; assay type: cell-based, Human
DU-145 = experiment: as above; assay type: cell-based, Human
T-47D = experiment: NCI antiproliferative SRB assay, Breast Cancer panel; assay type: cell-based, Human
[1] = system: Non-Small Cell Lung Cancer cell line panel; experiment: NCI antiproliferative assay, panel summary; assay type: cell-based, Human
[2] = system: Ovarian Cancer cell line panel; experiment: NCI antiproliferative assay, panel summary; assay type: cell-based, Human
[3] = system: Renal Cancer cell line panel; experiment: NCI antiproliferative assay, panel summary; assay type: cell-based, Human
60 NCI cancer cell lines = experiment: NCI antiproliferative assay, summary over all lines; assay type: cell-based; conditions: for GI50: Homo sapiens, 5-dose assay
EGFR = molecular target: T1, EGFR (Homo sapiens, UniProt P00533); experiment: Spectrophotometric assay for EGFR tyrosine kinase inhibition in A431 cells; assay type: cell-based; conditions: absorbance at 540 nm
T1 construct: tested for anti-EGFR activity in human A431 cells, which express high levels of EGFR protein; endogenous in cells; host or cells: human A431 cells

[4] = Homo sapiens, 5-dose 0.01-100 µM
[5] = Homo sapiens, 5-dose 0.01-100 µM, read-out: LC50 (the source's name)
[6] = Homo sapiens, T47D, 5-dose 0.01-100 µM
[7] = Homo sapiens, 5-dose assay, read-out: Sub Panel MID b (mean GI50 of panel)
[8] = mean over cell lines, one dose 10 µM

T1 sequence (P00533 25-1210): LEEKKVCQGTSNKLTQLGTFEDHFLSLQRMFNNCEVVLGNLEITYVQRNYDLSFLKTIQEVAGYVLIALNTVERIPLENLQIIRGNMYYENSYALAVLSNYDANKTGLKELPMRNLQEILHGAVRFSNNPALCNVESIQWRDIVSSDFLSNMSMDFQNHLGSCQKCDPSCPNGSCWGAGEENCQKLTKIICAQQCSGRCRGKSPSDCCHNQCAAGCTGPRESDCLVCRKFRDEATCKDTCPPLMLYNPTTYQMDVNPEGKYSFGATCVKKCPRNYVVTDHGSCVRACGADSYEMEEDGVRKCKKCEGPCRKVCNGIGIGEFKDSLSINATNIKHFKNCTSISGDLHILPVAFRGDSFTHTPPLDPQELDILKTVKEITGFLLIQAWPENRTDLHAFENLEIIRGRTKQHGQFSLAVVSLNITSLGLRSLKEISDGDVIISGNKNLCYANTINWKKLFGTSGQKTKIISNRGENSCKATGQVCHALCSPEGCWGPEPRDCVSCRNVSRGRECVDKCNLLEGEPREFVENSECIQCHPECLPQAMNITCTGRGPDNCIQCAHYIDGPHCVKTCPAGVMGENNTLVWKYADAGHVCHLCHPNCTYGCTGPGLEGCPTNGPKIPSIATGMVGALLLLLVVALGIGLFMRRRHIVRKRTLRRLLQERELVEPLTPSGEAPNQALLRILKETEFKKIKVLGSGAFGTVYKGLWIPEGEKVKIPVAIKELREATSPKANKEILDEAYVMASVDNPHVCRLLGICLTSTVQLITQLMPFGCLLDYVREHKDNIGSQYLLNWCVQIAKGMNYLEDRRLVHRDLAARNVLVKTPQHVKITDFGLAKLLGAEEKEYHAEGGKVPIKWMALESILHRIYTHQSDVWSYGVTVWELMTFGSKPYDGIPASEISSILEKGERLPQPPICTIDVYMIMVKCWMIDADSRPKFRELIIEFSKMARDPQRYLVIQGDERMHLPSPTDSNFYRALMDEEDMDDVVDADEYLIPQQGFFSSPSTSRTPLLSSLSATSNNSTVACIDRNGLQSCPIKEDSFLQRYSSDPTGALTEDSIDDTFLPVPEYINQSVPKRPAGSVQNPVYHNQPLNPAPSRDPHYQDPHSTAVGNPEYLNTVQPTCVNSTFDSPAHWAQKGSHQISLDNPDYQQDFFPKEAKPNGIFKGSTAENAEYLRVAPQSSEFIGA

COc1cc(/C=C/c2cc(/C=C/c3ccc(O)c(OC)c3)n(C(=O)Nc3ccc(C(F)(F)F)cc3)n2)ccc1O [3c]
TGI (K-562; 5-dose 0.01-100 µM): >100 µM | GI50 (K-562; Homo sapiens, K562, 5-dose 0.01-100 µM): 2.53 µM | CC50 (K-562; Homo sapiens, K562, 5-dose 0.01-100 µM, read-out: LC50 (the source's name)): > 100 µM | %GI (K-562; one dose 10 µM): 90.55% | GP (growth percent) (K-562; one dose 10 µM): 9.45 | TGI (SR; 5-dose 0.01-100 µM): >100 µM | GI50 (SR; [4]): 1.48 µM | CC50 (SR; [5]): > 100 µM | %GI (SR; one dose 10 µM): 86.79% | GP (growth percent) (SR; one dose 10 µM): 13.21 | TGI (A549/ATCC; 5-dose 0.01-100 µM): >100 µM | GI50 (A549/ATCC; [4]): 4.11 µM | LC50 (50% lethal concentration) (A549/ATCC; [4]): > 100 µM | %GI (A549/ATCC; one dose 10 µM): 57.05% | GP (growth percent) (A549/ATCC; one dose 10 µM): 42.95 | TGI (EKVX; 5-dose 0.01-100 µM): 38.4 µM | GI50 (EKVX; [4]): 3.22 µM | CC50 (EKVX; [5]): > 100 µM | %GI (EKVX; one dose 10 µM): 38.75% | GP (growth percent) (EKVX; one dose 10 µM): 61.25 | TGI (HOP-92; 5-dose 0.01-100 µM): 6.79 µM | GI50 (HOP-92; Homo sapiens): 2.35 µM | CC50 (HOP-92; [5]): > 100 µM | TGI (NCI-H322M; 5-dose 0.01-100 µM): 12.9 µM | GI50 (NCI-H322M; [4]): 3.25 µM | CC50 (NCI-H322M; [5]): 49.6 µM | %GI (NCI-H322M; one dose 10 µM): 17.30% | GP (growth percent) (NCI-H322M; one dose 10 µM): 82.70 | TGI (HCT-15; 5-dose 0.01-100 µM): 9.63 µM | GI50 (HCT-15; [4]): 2.69 µM | CC50 (HCT-15; [5]): > 100 µM | %GI (HCT-15; one dose 10 µM): 74.49% | GP (growth percent) (HCT-15; one dose 10 µM): 25.51 | TGI (SF-295; 5-dose 0.01-100 µM): 9.85 µM | GI50 (SF-295; [4]): 2.89 µM | CC50 (SF-295; [5]): 76.5 µM | %GI (SF-295; one dose 10 µM): 16.58% | GP (growth percent) (SF-295; one dose 10 µM): 83.42 | TGI (SNB-19; 5-dose 0.01-100 µM): 11.2 µM | GI50 (SNB-19; [4]): 3.16 µM | CC50 (SNB-19; [5]): 36.9 µM | %GI (SNB-19; one dose 10 µM): 51.32% | GP (growth percent) (SNB-19; one dose 10 µM): 48.68 | TGI (SNB-75; 5-dose 0.01-100 µM): 66.0 µM | GI50 (SNB-75; [4]): 2.99 µM | CC50 (SNB-75; [5]): > 100 µM | %GI (SNB-75; one dose 10 µM): 28.20% | GP (growth percent) (SNB-75; one dose 10 µM): 71.80 | TGI (LOX IMVI; 5-dose 0.01-100 µM): 3.71 µM | GI50 (LOX IMVI; [4]): 1.77 µM | %GI (LOX IMVI; one dose 10 µM): 90.89% | GP (growth percent) (LOX IMVI; one dose 10 µM): 9.11 | TGI (MDA-MB-435; 5-dose 0.01-100 µM): 7.06 µM | GI50 (MDA-MB-435; Homo sapiens): 2.35 µM | CC50 (MDA-MB-435; [5]): 33.4 µM | %GI (MDA-MB-435; one dose 10 µM): 72.15% | GP (growth percent) (MDA-MB-435; one dose 10 µM): 27.85 | TGI (SK-MEL-2; 5-dose 0.01-100 µM): 17.3 µM | GI50 (SK-MEL-2; [4]): 3.15 µM | CC50 (SK-MEL-2; [5]): > 100 µM | %GI (SK-MEL-2; one dose 10 µM): 15.53% | GP (growth percent) (SK-MEL-2; one dose 10 µM): 84.47 | TGI (SK-MEL-5; 5-dose 0.01-100 µM): 6.89 µM | GI50 (SK-MEL-5; [4]): 2.27 µM | CC50 (SK-MEL-5; [5]): 28 µM | %GI (SK-MEL-5; one dose 10 µM): 64.60% | GP (growth percent) (SK-MEL-5; one dose 10 µM): 35.40 | GI50 (A498; [4]): 5.81 µM | CC50 (A498; [5]): 57.3 µM | %GI (A498; one dose 10 µM): -8.03% | GP (growth percent) (A498; one dose 10 µM): 108.03 | TGI (ACHN; 5-dose 0.01-100 µM): 7.08 µM | GI50 (ACHN; [4]): 2.48 µM | CC50 (ACHN; [5]): > 100 µM | GP (growth percent) (ACHN; one dose 10 µM): 65.82 | TGI (SN 12C; 5-dose 0.01-100 µM): 9.90 µM | GI50 (SN 12C; Homo sapiens, SN12C, 5-dose 0.01-100 µM): 2.73 µM | CC50 (SN 12C; Homo sapiens, SN12C, 5-dose 0.01-100 µM, read-out: LC50 (the source's name)): > 100 µM | %GI (SN 12C; one dose 10 µM): 63.08% | GP (growth percent) (SN 12C; one dose 10 µM): 36.92 | TGI (PC-3; 5-dose 0.01-100 µM): 13.5 µM | GI50 (PC-3; [4]): 3.21 µM | CC50 (PC-3; [5]): > 100 µM | %GI (PC-3; one dose 10 µM): 61.97% | GP (growth percent) (PC-3; one dose 10 µM): 38.03 | TGI (DU-145; 5-dose 0.01-100 µM): 13.0 µM | GI50 (DU-145; [4]): 3.67 µM | CC50 (DU-145; [5]): 45.3 µM | %GI (DU-145; one dose 10 µM): 52.45% | GP (growth percent) (DU-145; one dose 10 µM): 47.55 | TGI (T-47D; 5-dose 0.01-100 µM): 39.0 µM | GI50 (T-47D; [6]): 2.81 µM | LC50 (lethal concentration, 50% cell kill) (T-47D; [6]): > 100 µM | %GI (T-47D; one dose 10 µM): 52.60% | GP (growth percent) (T-47D; one dose 10 µM): 47.40 | Mean % GI ([1]; 10 µM): 48.83% | Selectivity Ratio (MID a:MID b) ([1]; 5-dose assay): 0.82 | GI50 [1, 7]: 3.44 µM | Mean % GI ([2]; 10 µM): 47.62% | Selectivity Ratio (MID a:MID b) ([2]; 5-dose assay): 0.88 | GI50 [2, 7]: 3.24 µM | GI50 ([3]; Homo sapiens, read-out: Sub Panel MID b (mean GI50 of panel)): 3.06 µM | Mean % GI ([3]; Renal Cancer panel, 10 µM): 46.37% | Selectivity Ratio (MID a:MID b) ([3]; Renal Cancer panel, 5-dose assay): 0.93 | GI50 (60 NCI cancer cell lines; read-out: GI50 values, range over cell lines): 1.48 to 7.29 µM | GI50 (60 NCI cancer cell lines; read-out: MID a (mean GI50 of 60 NCI cancer cell lines)): 2.84 µM | Mean % GI (60 NCI cancer cell lines; [8]): 59.26% | Mean GP (60 NCI cancer cell lines; [8]): 40.74 | IC50 (EGFR): 4.18 µM
